One test concerns the target T1, zfSARM1 (Danio rerio, UniProt F1QWA8).
T1 sequence (F1QWA8 1-713): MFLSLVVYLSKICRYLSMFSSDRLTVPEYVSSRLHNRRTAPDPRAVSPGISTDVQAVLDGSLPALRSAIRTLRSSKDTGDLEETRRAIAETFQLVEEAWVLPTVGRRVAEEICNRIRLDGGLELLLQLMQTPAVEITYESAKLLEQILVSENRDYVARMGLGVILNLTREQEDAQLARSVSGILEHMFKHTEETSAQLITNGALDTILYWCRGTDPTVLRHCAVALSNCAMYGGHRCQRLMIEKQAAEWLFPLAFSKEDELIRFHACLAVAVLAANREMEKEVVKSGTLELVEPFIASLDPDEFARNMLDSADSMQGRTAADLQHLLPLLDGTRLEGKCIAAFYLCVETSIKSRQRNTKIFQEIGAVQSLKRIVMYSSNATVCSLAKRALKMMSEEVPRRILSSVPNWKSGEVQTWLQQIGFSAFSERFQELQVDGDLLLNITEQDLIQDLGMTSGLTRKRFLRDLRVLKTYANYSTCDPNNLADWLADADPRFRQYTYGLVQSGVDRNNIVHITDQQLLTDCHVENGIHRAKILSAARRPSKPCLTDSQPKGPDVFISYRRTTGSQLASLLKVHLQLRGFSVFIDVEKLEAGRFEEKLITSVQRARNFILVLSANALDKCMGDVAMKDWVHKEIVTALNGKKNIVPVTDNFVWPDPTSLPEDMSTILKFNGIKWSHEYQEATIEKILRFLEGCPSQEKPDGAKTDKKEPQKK
The experiment in a line: Effect of hSARM1 inhibitors on zfSARM1 NADase activity (ADPR by HPLC). It is filed as biochemical, Zebrafish. The settings on record: 50 μM NAD+; ADPR production by HPLC.

The next test concerns the target T2, hSARM1 (Homo sapiens, UniProt Q6SZW1).
T2 construct: hSARM1w.t; (26ERL . . . GPT724) that was not mutated in E642, was also expressed and isolated; 6xHis (N); TEV cleavage site (N); made in house; host or cells: HEK293F suspension cells
T2 sequence (Q6SZW1 with tags, fused parts or gaps): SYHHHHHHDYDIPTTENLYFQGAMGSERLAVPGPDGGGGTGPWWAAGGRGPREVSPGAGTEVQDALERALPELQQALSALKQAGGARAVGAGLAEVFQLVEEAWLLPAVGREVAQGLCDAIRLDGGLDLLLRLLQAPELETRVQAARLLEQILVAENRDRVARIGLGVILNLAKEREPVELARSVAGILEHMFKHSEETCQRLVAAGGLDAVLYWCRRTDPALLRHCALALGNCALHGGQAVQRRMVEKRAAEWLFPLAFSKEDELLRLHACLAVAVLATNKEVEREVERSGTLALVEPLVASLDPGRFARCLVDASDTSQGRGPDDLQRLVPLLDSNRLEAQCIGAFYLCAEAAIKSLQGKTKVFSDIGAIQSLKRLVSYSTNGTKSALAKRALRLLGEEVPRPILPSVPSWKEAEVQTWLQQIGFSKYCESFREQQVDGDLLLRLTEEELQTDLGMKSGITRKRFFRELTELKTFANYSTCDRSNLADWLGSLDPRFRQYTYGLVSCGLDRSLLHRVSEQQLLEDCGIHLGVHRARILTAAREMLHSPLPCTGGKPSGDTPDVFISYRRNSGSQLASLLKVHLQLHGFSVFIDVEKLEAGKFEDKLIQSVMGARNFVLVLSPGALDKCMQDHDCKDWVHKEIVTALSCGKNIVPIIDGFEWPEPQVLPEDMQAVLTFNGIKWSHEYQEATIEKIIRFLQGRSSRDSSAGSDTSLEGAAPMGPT
In words: High-throughput resazurin fluorescence inhibitor screen. The test is classed as biochemical. The conditions noted are these: 1 mM NAM; pre-incubation 10 minutes at room temperature. As for the experimental part: The high-throughput inhibitor-screening assay was preformed using the MultiDrop 384 microplate dispenser (Thermo Scientific) and 1536-well black/black non-binding Microplates (Greiner Bio-One).
First, 10 nano-liters of each of the 142000 screened compounds, solubilized in DMSO, were plated using Echo® 550 Liquid Handler (Sunny vale, CA, USA). Then. 5 micro liters of purified SARM1 (at 50 Nano-Molar concentration) in 25 mM HEPES pH 7.5, 150 mM NaCl were added to each well for 10 minutes incubation in 25° C. Next, 2.5 Micro Liters of NAD+(in 0.25 Micro-Molar concentration, in 25 mM HEPES pH 7.5, 150 mM NaCl) were added to each well and incubated for 70 min at 37° C. The compounds concentration at this point were […].
Measurement of NAD+ concentrations were made by a modified enzymatic coupled cycling assay. […] Fluorescent signals were measured by PheraStar FS plate reader (BMG Labtech, Ortenberg, Germany) at 540-nm excitation and 590-nm emission wavelengths. […]
To discover new and effective inhibitors for hSARM1, we have applied a modified fluorescence assay for high throughput screening. The adaptations introduced in this assay aim to achieve: stable fluorescent signal over time, good sensitivity for inhibition by screened compounds, high signal-to-noise, good reproducibility, accuracy, and diminishing of false-positive readouts. […]
On the technique in general: Alamar Blue is a resazurin reagent that responds to reducing activity.

What is called IC50 is the concentration at which inhibition is half-maximal.

Take `NC(=O)c1cccnc1` [NAM, nicotinamide, reference compound]: half-maximal inhibition against zfSARM1 (IC50) was put at 227 µM. Moreover, the “fluorescence output response” value at hSARM1 is recorded as “hSARM1 inhibition”.

The record behind these values is US20220241416A1, “METHODS FOR THE IDENTIFICATION OF SARM1 NADASE ACTIVITY INHIBITORS AND USES THEREOF” (Bar Ilan University, priority 2021, published 2022).
